Experimental data from patent publication US20080115593A1, “Method for Detecting Conformational Change of Calmodulin, a Method for Screening a Substance Having an Activity that Affects to Conformational Change of Calmodulin” (FUENCE CO., LTD., priority 2004, published 2008).

Target: T1, Calmodulin derived from bovine (Bos taurus, UniProt P62157)
T1 construct: purchased Sigma
Assay: Tension and elasticity change of calmodulin film detected by mechanochemical sensor (Example 1)
Type: binding
Conditions: FIG. 1; for isotropic tension of the calmodulin film: 10 mM Hepes buffer pH7.4 containing 0.1 M NaCl, flow 0.1 to 0.2 mL/min
Procedure: Calmodulin derived from bovine (Sigma) was dissolved into purified water at a concentration of 2 mg/ml. This solution was sprayed under dry air using an electrospry device described in WO 2002-511792 or an immobilzing device described in Japanese Patent Publication No. 2003-136005. The solution was permeated through a mask with holes of 400 μm in length and 800 μm in width, and then a film was prepared on 1.2% polyvinylpyrrolidone using an electrospray method (the EDS method). The resulting film was placed on an apparatus having a mechanochemical sensor which was described in WO 2002-503332 or U.S. Pat. Publication No. 6,033,913, and it was immersed into 10 mM Hepes buffer solution pH7.4 (hereinafter referred to as “the buffer solution”) containing 0.1 M NaCl. The buffer solution was passed through the film existing on the detecting apparatus at the flow rate of 0.1 to 0.2 mL/min, in order to stabilize the tension of the sample film. Thereafter CaCl2 solution dissolved in said buffer solution was passed through at the same flow rate to detect changes in tension and elasticity (FIG. 1).
A place where the horizontal line (indicating the initial state) uprises means a point where tension is given to the sample film, and compliance is detected where the line oscillates. […] Meanwhile, for example, following review can be refereed to the conformational change of calmodulin, (Vetter S. W. and Leclerc, E. (2003). Novel aspects of calmodulin target recognition and activation. Eur. J. Biochem. 270, 404-414).

isotropic tension of the calmodulin film	reversibility of the effect on the film when restored by the buffer solution (buffer solution passed after CaCl2)	SMILES
remarkably increases	reversible	[Ca+2].[Cl-].[Cl-] [CaCl2]
further decreases	–	O=C(O)CN(CCN(CC(=O)O)CC(=O)O)CC(=O)O [EDTA]
